Experimental data: US20230150980A1, “COLLAGEN 1 TRANSLATION INHIBITORS AND METHODS OF USE THEREOF” (Anima Biotech Inc., priority 2020, published 2023)

Tested on: collagen 1
Experiment: WI-38 collagen 1 inhibition assay (anti-Collagen I immunofluorescence);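 note: minus sign means inactive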
Type: cell-based
Details: cellular EC50, WI-38 human lung fibroblasts, values are LogEC50 classes
Experimental: WI-38 cells (ATCC® CCL-75™) were maintained in MEM EAGLE (NEAA) W. GLUTAMIN (Biological Industries, Cat. 06-1040-15-1A) containing 10% fetal bovine serum (FBS) and 1% Penicillin-Streptomycin Solution. To synchronize the cells (cell cycle synchronization) prior to induction of collagen synthesis, the cells were starved using DMEM-low glucose supplemented with 0.25% FBS for two hours and then without FBS for 24 hours. To induce collagen synthesis, the cells were treated with a collagen induction cocktail for the indicated time. Compounds were added with induction.
Cells in 96-well or 384-well plates were fixed for 20 min in 4% paraformaldehyde (PFA, ENCO, Cat. sc-281692). Following two washes with 1×PBS, cells were treated with hydrogen peroxide (Acros, Cat: 7722-84-1) for 10 minutes and then washed twice with 1×PBS. Cells were then incubated over-night at 4° C. with Anti-Collagen I (Sigma-Aldrich, Cat: C 2456) antibody and washed three times with 1×PBS. Cell were then incubated with a suitable secondary fluorescently-tagged antibody and nuclei stained with DAPI, for 1 hour, and then washed 3 times with 1×PBS.
Cell images were taken with Operetta (Perkin Elmer, USA), a wide-field fluorescence microscope at 20× magnification. After acquisition, the images were transferred to Columbus software (Perkin-Elmer) for image analysis. In Columbus, cells were identified by their nucleus, using the “Find Nuceli” module and cytoplasm was detected based on the secondary antibody channel. Subsequently, the fluorescent signal was enumerated in the identified cell region. Data was exported to a data analysis and visualization software, Tibco Spotfire, USA.

| SMILES | COL1 Efficacy (LogEC50) |
| --- | --- |
| Cc1ncnc(N2CCN(Cc3nc4ccc(C(F)(F)F)cc4[nH]3)CC2)c1C [Compound 201, 2-((4-(5,6-dimethylpyrimidin-4-yl)piperazin-1-yl)methyl)-6-(trifluoromethyl)-1H-benzo[d]imidazole] | +++ (+++: <−6) |
| Cc1ncnc(N2CCN(Cc3cc4ccccc4[nH]3)CC2)c1C [Compound 202, 2-((4-(5,6-dimethylpyrimidin-4-yl)piperazin-1-yl)methyl)-1H-indole] | +++ (+++: <−6) |
| FC(F)(F)c1ccc2nc(CN3CCN(c4ccncn4)CC3)[nH]c2c1 [Compound 203, 2-((4-(pyrimidin-4-yl)piperazin-1-yl)methyl)-6-(trifluoromethyl)-1H-benzo[d]imidazole] | ++ (++: −5 to −6) |
| FC(F)(F)c1ccc2nc(CN3CCN(c4ccncc4)CC3)[nH]c2c1 [Compound 209, 2-((4-(pyridin-4-yl)piperazin-1-yl)methyl)-6-(trifluoromethyl)-1H-benzo[d]imidazole] | + (+: >−5) |
| Cc1ncnc(N2CCN(Cc3cc4cc(Cl)ccc4[nH]3)CC2)c1C [Compound 210, 5-chloro-2-((4-(5,6-dimethylpyrimidin-4-yl)piperazin-1-yl)methyl)-1H-indole] | +++ (+++: <−6) |
| CCc1cncnc1N1CCN(Cc2nc3ccc(Cl)cc3[nH]2)CC1 [Compound 211, 6-chloro-2-((4-(5-ethylpyrimidin-4-yl)piperazin-1-yl)methyl)-1H-benzo[d]imidazole] | +++ (+++: <−6) |
| c1ccc2[nH]c(CN3CCN(c4ccncc4)CC3)cc2c1 [Compound 212, 2-((4-(pyridin-4-yl)piperazin-1-yl)methyl)-1H-indole] | +++ (+++: <−6) |
| c1ccc2[nH]c(CN3CCN(c4ccncn4)CC3)cc2c1 [Compound 213, 2-((4-(pyrimidin-4-yl)piperazin-1-yl)methyl)-1H-indole] | +++ (+++: <−6) |
| c1ccc(N2CCN(Cc3cc4ccccc4[nH]3)CC2)nc1 [Compound 216, 2-[[4-(2-pyridyl)piperazin-1-yl]methyl]-1H-indole] | + (+: >−5) |
| c1cncc(N2CCN(Cc3cc4ccccc4[nH]3)CC2)c1 [Compound 217, 2-[[4-(3-pyridyl)piperazin-1-yl]methyl]-1H-indole] | + (+: >−5) |
| c1cncc(CN2CCN(Cc3cc4ccccc4[nH]3)CC2)c1 [Compound 218, 2-[[4-(3-pyridylmethyl)piperazin-1-yl]methyl]-1H-indole] | + (+: >−5) |
| Cc1cc(N2CCN(Cc3cc4ccccc4[nH]3)CC2)ccn1 [Compound 221, 2-[[4-(2-methyl-4-pyridyl)piperazin-1-yl]methyl]-1H-indole] | − |
| Cc1cnccc1N1CCN(Cc2cc3ccccc3[nH]2)CC1 [Compound 222, 2-[[4-(3-methyl-4-pyridyl)piperazin-1-yl]methyl]-1H-indole] | ++ (++: −5 to −6) |
| FC(F)(F)c1cccnc1N1CCN(Cc2cc3ccccc3[nH]2)CC1 [Compound 225, 2-[[4-[3-(trifluoromethyl)-2-pyridyl]piperazin-1-yl]methyl]-1H-indole] | + (+: >−5) |
| CN1CCC(N2CCN(Cc3cc4ccccc4[nH]3)CC2)CC1 [Compound 227, 2-[[4-(1-methyl-4-piperidyl)piperazin-1-yl]methyl]-1H-indole] | − |
| c1ccc2[nH]c(CN3CCN(c4nccs4)CC3)cc2c1 [Compound 229, 2-[4-(1H-indol-2-ylmethyl)piperazin-1-yl]thiazole] | ++ (++: −5 to −6) |
| CCCN1CCN(Cc2cc3ccccc3[nH]2)CC1 [Compound 230, 2-[(4-propylpiperazin-1-yl)methyl]-1H-indole] | + (+: >−5) |
| O=C(c1cccnc1)N1CCN(Cc2cc3ccccc3[nH]2)CC1 [Compound 231, [4-(1H-indol-2-ylmethyl)piperazin-1-yl]-(3-pyridyl)methanone] | − |
| O=C(C1CCCCC1)N1CCN(Cc2cc3ccccc3[nH]2)CC1 [Compound 232, Cyclohexyl-[4-(1H-indol-2-ylmethyl)piperazin-1-yl]methanone] | ++ (++: −5 to −6) |
| c1ccc2[nH]c(CN3CCN(C4CCCC4)CC3)cc2c1 [Compound 233, 2-[(4-cyclopentylpiperazin-1-yl)methyl]-1H-indole] | + (+: >−5) |
| c1ccc2[nH]c(CN3CCN(c4nccc5occc45)CC3)cc2c1 [Compound 235, 4-[4-(1H-indol-2-ylmethyl)piperazin-1-yl]furo[3,2-c]pyridine] | + (+: >−5) |
| c1ccc2[nH]c(CN3CCN(c4ccnc5ccccc45)CC3)cc2c1 [Compound 236, 4-[4-(1H-indol-2-ylmethyl)piperazin-1-yl]quinolone] | ++ (++: −5 to −6) |
| c1ccc2nc(N3CCN(Cc4cc5ccccc5[nH]4)CC3)ccc2c1 [Compound 237, 2-[4-(1H-indol-2-ylmethyl)piperazin-1-yl]quinolone] | ++ (++: −5 to −6) |

| SMILES | COL1 Efficacy (LogEC50) |
| --- | --- |
| Cc1cccnc1N1CCN(Cc2cc3ccccc3[nH]2)CC1 [Compound 238, 2-[[4-(3-methyl-2-pyridyl)piperazin-1-yl]methyl]-1H-indole] | ++ (++: −5 to −6) |
| CC(C)CC(=O)N1CCN(Cc2cc3ccccc3[nH]2)CC1 [Compound 239, 1-[4-(1H-indol-2-ylmethyl)piperazin-1-yl]-3-methyl-butan-1-one] | ++ (++: −5 to −6) |
| c1ccc2[nH]c(CN3CCN(c4ccc5cn[nH]c5c4)CC3)cc2c1 [Compound 286, 6-(4-((1H-indol-2-yl)methyl)piperazin-1-yl)-1H-indazole] | − |
| FC(F)(F)c1ccc2nc(CN3CCN(c4ccccc4)CC3)[nH]c2c1 [compound 200] | − |
| Cc1ncnc(N2CCN(Cc3[nH]c4ccc(Cl)cc4c3C)CC2)c1C [compound 204] | ++ (++: −5 to −6) |
| Cc1cc2c(N3CCN(Cc4nc5ccccc5[nH]4)CC3)ncnc2s1 [compound 205] | ++ (++: −5 to −6) |
| c1ccc(-c2nc3c(c(N4CCN(Cc5cc6ccccc6[nH]5)CC4)n2)CCC3)cc1 [compound 207] | ++ (++: −5 to −6) |
| c1ccc2[nH]c(CN3CCN(c4cc(-n5cccn5)ncn4)CC3)nc2c1 [compound 208] | ++ (++: −5 to −6) |
| CCc1cncnc1N1CCN(Cc2nc3ccc(C(F)(F)F)cc3[nH]2)CC1 [compound 214] | +++ (+++: <−6) |
| Brc1ccc2[nH]c(CN3CCN(c4ccncc4)CC3)cc2c1 [compound 215, 5-bromo-2-[[4-(4-pyridyl)piperazin-1-yl]methyl]-1H-indole] | − |
| c1ccc(-c2ccc3[nH]c(CN4CCN(c5ccncc5)CC4)cc3c2)cc1 [compound 219, 5-phenyl-2-[[4-(4-pyridyl)piperazin-1-yl]methyl]-1H-indole] | − |
| c1cncc(-c2ccc3[nH]c(CN4CCN(c5ccncc5)CC4)cc3c2)c1 [compound 220, 5-(3-pyridyl)-2-[[4-(4-pyridyl)piperazin-1-yl]methyl]-1H-indole] | − |
| COc1ccc2[nH]c(CN3CCN(c4ccncc4)CC3)cc2c1 [compound 223, 5-methoxy-2-[[4-(4-pyridyl)piperazin-1-yl]methyl]-1H-indole] | − |
| Brc1ccc2cc(CN3CCN(c4ccncc4)CC3)[nH]c2c1 [compound 224, 6-bromo-2-[[4-(4-pyridyl)piperazin-1-yl]methyl]-1H-indole] | + (+: >−5) |
| FC(F)(F)c1ccc2[nH]c(CN3CCN(c4ccncc4)CC3)cc2c1 [compound 226, 2-[[4-(4-pyridyl)piperazin-1-yl]methyl]-5-(trifluoromethyl)-1H-indole] | + (+: >−5) |
| COc1ccc2cc(CN3CCN(c4ccncc4)CC3)[nH]c2c1 [compound 228, 6-methoxy-2-[[4-(4-pyridyl)piperazin-1-yl]methyl]-1H-indole] | + (+: >−5) |
| c1ccc2[nH]c(CN3CCN(c4nccc5ccccc45)CC3)cc2c1 [compound 234] | + (+: >−5) |
| Clc1ccc2cc(CN3CCN(c4ccncc4)CC3)[nH]c2c1 [compound 240, 6-chloro-2-[[4-(4-pyridyl)piperazin-1-yl]methyl]-1H-indole] | + (+: >−5) |
| c1ccc(N2CCN(Cc3cc4ccccc4[nH]3)CC2)cc1 [compound 241, 2-[(4-phenylpiperazin-1-yl)methyl]-1H-indole] | ++ (++: −5 to −6) |
| c1ccc2[nH]c(CN3CCN(c4ccnc5[nH]ccc45)CC3)cc2c1 [compound 242, 4-[4-(1H-indol-2-ylmethyl)piperazin-1-yl]-1H-pyrrolo[2,3-b]pyridine] | + (+: >−5) |
| Clc1cccc2[nH]c(CN3CCN(c4ccncc4)CC3)cc12 [compound 243, 4-chloro-2-[[4-(4-pyridyl)piperazin-1-yl]methyl]-1H-indole] | − |
| O=C(c1cc2ccccc2[nH]1)N1CCN(c2ccncc2)CC1 [compound 244, (1H-indol-2-yl)(4-(pyridin-4-yl)piperazin-1-yl)methanone] | + (+: >−5) |
